Laboratory results as given in BigSolDB 2.1.

CSCC[C@H](NC(=O)OCC1c2ccccc2-c2ccccc21)C(=O)O
solubility (mole fraction) (in 2-butanone, 283.15 K): 0.0269 | solubility (mole fraction) (in 2-butanone, 288.15 K): 0.0314 | solubility (mole fraction) (in 2-butanone, 293.15 K): 0.0336 | solubility (mole fraction) (in 2-butanone, 298.15 K): 0.0406 | solubility (mole fraction) (in 2-butanone, 303.15 K): 0.0454 | solubility (mole fraction) (in 2-butanone, 308.15 K): 0.0513 | solubility (mole fraction) (in 2-butanone, 313.15 K): 0.0621 | solubility (mole fraction) (in 2-butanone, 318.15 K): 0.0695 | solubility (mole fraction) (in 2-butanone, 323.15 K): 0.0818 | solubility (mole fraction) (in acetone, 283.15 K): 0.0457 | solubility (mole fraction) (in acetone, 288.15 K): 0.0475 | solubility (mole fraction) (in acetone, 293.15 K): 0.0553 | solubility (mole fraction) (in acetone, 298.15 K): 0.0614 | solubility (mole fraction) (in acetone, 303.15 K): 0.0722 | solubility (mole fraction) (in acetone, 308.15 K): 0.0806 | solubility (mole fraction) (in acetone, 313.15 K): 0.0892 | solubility (mole fraction) (in acetone, 318.15 K): 0.0961 | solubility (mole fraction) (in acetone, 323.15 K): 0.11 | solubility (mole fraction) (in acetonitrile, 283.15 K): 0.00368 | solubility (mole fraction) (in acetonitrile, 288.15 K): 0.00465 | solubility (mole fraction) (in acetonitrile, 293.15 K): 0.00571 | solubility (mole fraction) (in acetonitrile, 298.15 K): 0.00724 | solubility (mole fraction) (in acetonitrile, 303.15 K): 0.00847 | solubility (mole fraction) (in acetonitrile, 308.15 K): 0.00974 | solubility (mole fraction) (in acetonitrile, 313.15 K): 0.0111 | solubility (mole fraction) (in acetonitrile, 318.15 K): 0.0127 | solubility (mole fraction) (in acetonitrile, 323.15 K): 0.0155 | solubility (mole fraction) (in isobutanol, 283.15 K): 0.00438 | solubility (mole fraction) (in isobutanol, 288.15 K): 0.00573 | solubility (mole fraction) (in isobutanol, 293.15 K): 0.00736 | solubility (mole fraction) (in isobutanol, 298.15 K): 0.0102 | solubility (mole fraction) (in isobutanol, 303.15 K): 0.0136 | solubility (mole fraction) (in isobutanol, 308.15 K): 0.0165 | solubility (mole fraction) (in isobutanol, 313.15 K): 0.023 | solubility (mole fraction) (in isobutanol, 318.15 K): 0.032 | solubility (mole fraction) (in isobutanol, 323.15 K): 0.0402 | solubility (mole fraction) (in isopentanol, 283.15 K): 0.00409 | solubility (mole fraction) (in isopentanol, 288.15 K): 0.00489 | solubility (mole fraction) (in isopentanol, 293.15 K): 0.00573 | solubility (mole fraction) (in isopentanol, 298.15 K): 0.00778 | solubility (mole fraction) (in isopentanol, 303.15 K): 0.00996 | solubility (mole fraction) (in isopentanol, 308.15 K): 0.0126 | solubility (mole fraction) (in isopentanol, 313.15 K): 0.0154 | solubility (mole fraction) (in isopentanol, 318.15 K): 0.02 | solubility (mole fraction) (in isopentanol, 323.15 K): 0.0248 | solubility (mole fraction) (in isopropanol, 283.15 K): 0.00635 | solubility (mole fraction) (in isopropanol, 288.15 K): 0.00765 | solubility (mole fraction) (in isopropanol, 293.15 K): 0.00792 | solubility (mole fraction) (in isopropanol, 298.15 K): 0.00932 | solubility (mole fraction) (in isopropanol, 303.15 K): 0.0142 | solubility (mole fraction) (in isopropanol, 308.15 K): 0.0213 | solubility (mole fraction) (in isopropanol, 313.15 K): 0.0326 | solubility (mole fraction) (in isopropanol, 318.15 K): 0.0474 | solubility (mole fraction) (in isopropanol, 323.15 K): 0.0669 | solubility (mole fraction) (in n-butanol, 283.15 K): 0.0142 | solubility (mole fraction) (in n-butanol, 288.15 K): 0.0178 | solubility (mole fraction) (in n-butanol, 293.15 K): 0.0204 | solubility (mole fraction) (in n-butanol, 298.15 K): 0.0237 | solubility (mole fraction) (in n-butanol, 303.15 K): 0.0295 | solubility (mole fraction) (in n-butanol, 308.15 K): 0.0339 | solubility (mole fraction) (in n-butanol, 313.15 K): 0.0394 | solubility (mole fraction) (in n-butanol, 318.15 K): 0.0478 | solubility (mole fraction) (in n-butanol, 323.15 K): 0.0542 | solubility (mole fraction) (in n-butyl acetate, 283.15 K): 0.0129 | solubility (mole fraction) (in n-butyl acetate, 288.15 K): 0.015 | solubility (mole fraction) (in n-butyl acetate, 293.15 K): 0.0173 | solubility (mole fraction) (in n-butyl acetate, 298.15 K): 0.0203 | solubility (mole fraction) (in n-butyl acetate, 303.15 K): 0.0242 | solubility (mole fraction) (in n-butyl acetate, 308.15 K): 0.028 | solubility (mole fraction) (in n-butyl acetate, 313.15 K): 0.0347 | solubility (mole fraction) (in n-butyl acetate, 318.15 K): 0.0426 | solubility (mole fraction) (in n-butyl acetate, 323.15 K): 0.0532 | solubility (mole fraction) (in n-pentanol, 283.15 K): 0.00977 | solubility (mole fraction) (in n-pentanol, 288.15 K): 0.0117 | solubility (mole fraction) (in n-pentanol, 293.15 K): 0.0149 | solubility (mole fraction) (in n-pentanol, 298.15 K): 0.019 | solubility (mole fraction) (in n-pentanol, 303.15 K): 0.0272 | solubility (mole fraction) (in n-pentanol, 308.15 K): 0.033 | solubility (mole fraction) (in n-pentanol, 313.15 K): 0.0399 | solubility (mole fraction) (in n-pentanol, 318.15 K): 0.0514 | solubility (mole fraction) (in n-pentanol, 323.15 K): 0.0667 | solubility (mole fraction) (in n-propanol, 283.15 K): 0.0101 | solubility (mole fraction) (in n-propanol, 288.15 K): 0.0141 | solubility (mole fraction) (in n-propanol, 293.15 K): 0.0172 | solubility (mole fraction) (in n-propanol, 298.15 K): 0.0231 | solubility (mole fraction) (in n-propanol, 303.15 K): 0.0271 | solubility (mole fraction) (in n-propanol, 308.15 K): 0.0324 | solubility (mole fraction) (in n-propanol, 313.15 K): 0.0407 | solubility (mole fraction) (in n-propanol, 318.15 K): 0.0496 | solubility (mole fraction) (in n-propanol, 323.15 K): 0.0542 | solubility (mole fraction) (in n-propyl acetate, 283.15 K): 0.0155 | solubility (mole fraction) (in n-propyl acetate, 288.15 K): 0.0181 | solubility (mole fraction) (in n-propyl acetate, 293.15 K): 0.021 | solubility (mole fraction) (in n-propyl acetate, 298.15 K): 0.0252 | solubility (mole fraction) (in n-propyl acetate, 303.15 K): 0.0295 | solubility (mole fraction) (in n-propyl acetate, 308.15 K): 0.0361 | solubility (mole fraction) (in n-propyl acetate, 313.15 K): 0.0399 | solubility (mole fraction) (in n-propyl acetate, 318.15 K): 0.043 | solubility (mole fraction) (in n-propyl acetate, 323.15 K): 0.0456 | solubility (mole fraction) (in sec-butanol, 283.15 K): 0.00898 | solubility (mole fraction) (in sec-butanol, 288.15 K): 0.0109 | solubility (mole fraction) (in sec-butanol, 293.15 K): 0.0152 | solubility (mole fraction) (in sec-butanol, 298.15 K): 0.0223 | solubility (mole fraction) (in sec-butanol, 303.15 K): 0.0311 | solubility (mole fraction) (in sec-butanol, 308.15 K): 0.0438 | solubility (mole fraction) (in sec-butanol, 313.15 K): 0.0506 | solubility (mole fraction) (in sec-butanol, 318.15 K): 0.0612 | solubility (mole fraction) (in sec-butanol, 323.15 K): 0.0868
